Where two headings read alike, the source gives them in different places.
What was measured:
[1] = biological target: T1, human CB1 receptor (Homo sapiens, UniProt P21554); experiment: [35S] GTPγS binding on membranes of CHO cells expressing the human CB1 receptor (agonism); assay type: biochemical; parameters: expressed in transfected cells; membrane preparation
Procedure, shortened: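 Membranes from human CB1-expressing CHO cells (5 μg/well) incubated with test compound and [35S]GTPγS in 50 mM Tris pH 7.4, 100 mM NaCl, 3 mM MgCl2, 0.2 mM EGTA, 0.04% BSA for 45 min at 37 °C. Bound label collected by filtration, scintillation counted; EC50 from curve fits.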

[2] = biological target: T1, human CB1 receptor; experiment: Human CB1 receptor binding, [3H] CP-55,940 displacement on HEK cell membranes; parameters: expressed in transfected cells; host or cells: HEK cells, doxycycline-induced; membrane preparation
Procedure, shortened: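 Radioligand displacement: [3H] CP-55,940 at […] final, 1 μg membrane protein per well from HEK cells with tetracycline-inducible human CB1, 60 min at room temperature, pH 7.4 Tris/NaCl/MgCl2/EGTA/BSA buffer. 50 μM WIN-55,212-2 set nonspecific binding; bound label filtered, counted, and fitted for EC50 and Ki values.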

[3] = human CB1, CHO cell membranes, read-out: GTPγS EC50
[4] = GTPγS EC50, human CB1, CHO cell membranes

T1 sequence (P21554 whole entry): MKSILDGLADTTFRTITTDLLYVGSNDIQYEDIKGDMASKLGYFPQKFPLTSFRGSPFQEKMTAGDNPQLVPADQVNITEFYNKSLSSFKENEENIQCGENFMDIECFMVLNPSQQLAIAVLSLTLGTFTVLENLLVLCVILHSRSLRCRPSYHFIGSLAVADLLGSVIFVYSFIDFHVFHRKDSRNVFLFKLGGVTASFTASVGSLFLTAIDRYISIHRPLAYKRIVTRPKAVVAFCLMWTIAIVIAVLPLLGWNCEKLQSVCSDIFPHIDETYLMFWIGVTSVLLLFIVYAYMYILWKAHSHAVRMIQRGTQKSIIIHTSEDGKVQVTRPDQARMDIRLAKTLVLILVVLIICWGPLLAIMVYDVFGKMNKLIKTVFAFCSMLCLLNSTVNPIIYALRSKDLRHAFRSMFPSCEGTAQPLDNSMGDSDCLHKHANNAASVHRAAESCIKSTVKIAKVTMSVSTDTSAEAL

SMILES | EC50 [1, 3] [nM] | Ki ([2]; read-out: CB1 Ki) [nM] | EC50 [1, 4] [nM] | Ki ([2]; CB1 Ki) [nM]
CC(C)(C)C(NC(=O)c1nn(Cc2ccc(F)cc2)c2c(F)cccc12)C(=O)NCCNS(=O)(=O)C1CC1 (stereo not drawn) [Example 186] | 1.03 | 0.19 | – | –
CC(C)(C)[C@H](NC(=O)c1nn(Cc2ccc(C#N)cc2)c2cc(F)ccc12)C(N)=O [Example 300] | – | – | 121 | 5.85
CC(C)(C)[C@H](NC(=O)c1nn(Cc2ccc(C#N)cc2F)c2ccccc12)C(=O)NCCNS(=O)(=O)C1CC1 [Example 98] | 8.63 | 0.98 | – | –
CC(C)(C)[C@H](NC(=O)c1nn(Cc2ccc(F)cc2)c2ccc(Cl)cc12)C(=O)NCCS(N)(=O)=O [Example 432] | – | – | 101 | 15.7
CC(C)(C)[C@H](NC(=O)c1nn(Cc2ccc(F)cc2)c2ccccc12)C(=O)N1C[C@@H](O)[C@@H](O)C1 [Example 284] | – | – | 12.3 | 1.03
CCOC(=O)c1nnc(CNC(=O)[C@@H](NC(=O)c2nn(Cc3ccc(C#N)cc3)c3ccccc23)C(C)(C)C)o1 [Example 129] | 106 | 12.6 | – | –
CC(C)(C)[C@H](NC(=O)c1nn(Cc2ccc(F)cc2)c2c(F)c(F)ccc12)C(=O)NC(CO)CO [Example 325] | – | – | 5.33 | 1.97
CC(C)(C)[C@H](NC(=O)c1nn(Cc2ccc(F)cc2)c2ccccc12)C(=O)N1CCC(F)(F)CC1 [Example 332] | – | – | 27.3 | 15
CC(C)(C)C(NC(=O)c1nn(Cc2ccc(F)cc2)c2ccccc12)C(=O)NCc1noc(C(N)=O)n1 (stereo not drawn) [Example 137] | 1.69 | 0.69 | – | –
CC(C)(C)[C@H](NC(=O)c1nn(Cc2ccc(F)cc2)c2c(F)cc(Cl)cc12)C(=O)NCC(N)=O [Example 498] | – | – | 38.3 | 16.4
CC(C)(C)[C@H](NC(=O)c1nn(Cc2ccc(F)cc2)c2ccccc12)C(=O)N1CCC(F)C1 (stereo partly drawn) [Example 334] | – | – | 9.41 | 1.72
COC(=O)[C@@H](O)CNC(=O)[C@@H](NC(=O)c1nn(Cc2ccc(F)cc2)c2ccccc12)C(C)(C)C [Example 238] | – | – | 25.7 | 6.46
CC(C)NC(=O)OC1CCN(C(=O)[C@@H](NC(=O)c2nn(Cc3ccc(F)cc3)c3ccccc23)C(C)(C)C)CC1 [Example 302] | 33.1 | 5.41 | – | –
Cc1cc2c(C(=O)N[C@H](C(=O)NC[C@H](O)CO)C(C)(C)C)nn(Cc3ccc(F)cc3)c2cc1F [Example 510] | – | – | 24.8 | 6.87
CC(C)(C)C(NC(=O)c1nn(Cc2ccc(F)cc2)c2c(Cl)cccc12)C(N)=O (stereo not drawn) [Example 181] | – | – | 0.33 | 0.1
CC(C)(C)[C@H](NC(=O)c1nn(Cc2ccc(F)cc2)c2ccccc12)C(=O)NCC1=NCCN1 [Example 305] | – | – | 86.4 | 18
CC(C)(C)C(NC(=O)c1nn(Cc2ccc(F)cc2)c2ccccc12)C(=O)NC1(CO)CC1 (stereo not drawn) [Example 160] | – | – | 32.3 | 1.45
CC(C)(C)[C@H](NC(=O)c1nn(Cc2ccc(F)cc2)c2ccccc12)C(=O)N1CC(F)C1 [Example 336] | – | – | 0.52 | 0.11
CC(C)(C)C(NC(=O)c1nn(Cc2ccc(F)cc2)c2c(F)cccc12)C(=O)NCCO (stereo not drawn) [Example 177] | – | – | 0.31 | 0.28
CC(C)(C)[C@H](NC(=O)c1nn(Cc2ccc(F)cc2)c2ccccc12)C(=O)NCc1nc(-c2ccccn2)no1 [Example 424] | 10.2 | 1.28 | – | –
CC(C)(C)C(NC(=O)c1nn(Cc2ccc(F)cc2)c2c(Cl)cccc12)C(=O)NCCCO (stereo not drawn) [Example 184] | – | – | 3.94 | 0.37
CC(C)(C)[C@H](NC(=O)c1nn(Cc2ccc(C#N)cc2)c2ccccc12)C(=O)N[C@H]1C[C@H](O)C1 [Example 354] | – | – | > 500 | 11.7
CC(C)(C)[C@H](NC(=O)c1nn(Cc2ccc(F)cc2)c2ccccc12)C(=O)NCCNc1ccccn1 [Example 480] | 42.6 | 15.3 | – | –
CC(C)(C)[C@H](NC(=O)c1nn(Cc2ccc(C#N)cc2F)c2c(F)cccc12)C(=O)NCc1nnc(C(N)=O)o1 [Example 375] | 31.4 | 7.92 | – | –

SMILES | EC50 [1, 3] [nM] | Ki ([2]; read-out: CB1 Ki) [nM] | EC50 [1, 4] [nM] | Ki ([2]; CB1 Ki) [nM]
CC(C)(C)[C@H](NC(=O)c1nn(Cc2ccc(F)cc2)c2ccccc12)C(=O)NCc1nc2n(n1)CCC2 [Example 415] | 10.8 | 8.69 | – | –
CC(C)(C)[C@H](NC(=O)c1nn(Cc2ccc(F)cc2)c2ccccc12)C(=O)NCCOc1ccccn1 [Example 478] | 23.7 | 21.3 | – | –
CC(C)(C)[C@H](NC(=O)c1nn(Cc2ccc(F)cc2)c2ccccc12)C(=O)NCc1cc(C2CCC2)[nH]n1 [Example 420] | 43.7 | 11.2 | – | –
CC(C)(C)[C@H](NC(=O)c1nn(Cc2ccc(C#N)cc2)c2c(F)cccc12)C(=O)N1CC(C(N)=O)C1 [Example 352] | – | – | 49.5 | 4.14
CC(C)(C)C(NC(=O)c1nn(Cc2ccc(C#N)cc2F)c2ccccc12)C(=O)NCC(O)CO (stereo not drawn) [Example 90] | – | – | 385 | 27.4
CC(C)(C)C(NC(=O)c1nn(Cc2ccc(C#N)cc2F)c2ccccc12)C(=O)NCCNC(N)=O (stereo not drawn) [Example 94] | – | – | 77 | 27.5
CC(C)(C)[C@H](NC(=O)c1nn(Cc2ccc(F)cc2)c2ccccc12)C(=O)NCc1n[nH]c(C2CC2)n1 [Example 413] | 52 | 14 | – | –
Cn1cc(CNC(=O)[C@@H](NC(=O)c2nn(Cc3ccc(F)cc3)c3ccccc23)C(C)(C)C)cn1 [Example 423] | – | – | 30.8 | 5.19
CC(C)(C)[C@H](NC(=O)c1nn(Cc2ccc(F)cc2)c2ccccc12)C(=O)NC(CO)CO [Example 241] | – | – | 5.72 | 1.65
CC(C)(C)C(NC(=O)c1nn(Cc2ccc(C#N)cc2F)c2ccccc12)C(=O)NCCCO (stereo not drawn) [Example 93] | – | – | 41.8 | 14.3
CC(C)(C)[C@H](NC(=O)c1nn(Cc2ccc(C#N)cc2)c2ccccc12)c1nnc(N)o1 [Example 71] | 314 | 8.85 | – | –
CC(C)(C)[C@H](NC(=O)c1nn(Cc2ccc(F)cc2)c2ccccc12)C(=O)NCCn1ccccc1=O [Example 502] | 36.9 | 17.3 | – | –
CC(C)(C)[C@H](NC(=O)c1nn(Cc2ccc(F)cc2)c2ccccc12)C(=O)NCCc1cnccn1 [Example 482] | 22.2 | 12.1 | – | –
CC(C)(C)[C@H](NC(=O)c1nn(Cc2ccc(F)cc2)c2ccccc12)C(=O)N1CCC(F)CC1 [Example 341] | – | – | 13.9 | 3.74
CC(C)(C)[C@H](NC(=O)c1nn(Cc2ccc(F)cc2)c2ccccc12)C(=O)N1CCN(CC(N)=O)CC1 [Example 262] | 38.9 | 8.25 | – | –
CC(C)(C)[C@H](NC(=O)c1nn(Cc2ccc(F)cc2)c2ccccc12)C(=O)NCCC(N)=O [Example 470] | – | – | 33.7 | 11.2
CC(C)(C)C(NC(=O)c1nn(Cc2ccc(F)cc2)c2ccccc12)c1nnc(C(N)=O)o1 (stereo not drawn) [Example 122] | 13.1 | 0.73 | – | –
CC(C)(C)[C@H](NC(=O)c1nn(Cc2ccc(F)cc2)c2c(F)c(F)ccc12)C(=O)NCCS(C)(=O)=O [Example 326] | – | – | 53.2 | 15.8
CC(C)(C)C(NC(=O)c1nn(Cc2ccc(C#N)cc2)c2ccc(F)cc12)C(N)=O (stereo not drawn) [Example 163] | – | – | 180 | 4.45
CC(C)(C)[C@H](NC(=O)c1nn(Cc2ccc(C#N)cc2)c2c(F)cccc12)C(=O)N1Cc2ccccc2C1 [Example 213] | 57.7 | 15.7 | – | –
CC(C)(C)[C@H](NC(=O)c1nn(Cc2ccc(F)cc2)c2ccccc12)C(=O)N[C@@H](CO)C(N)=O [Example 230] | – | – | 31.4 | 6.5
CC(C)(C)[C@H](NC(=O)c1nn(Cc2ccc(F)cc2)c2ccccc12)C(=O)N1CCN(S(=O)(=O)C2CC2)CC1 [Example 245] | 12.4 | 2.61 | – | –
CC(C)(C)C(NC(=O)c1nn(Cc2ccccc2)c2ccc(-c3ncco3)cc12)C(N)=O (stereo not drawn) [Example 35] | 271 | 35.3 | – | –
CC(C)(C)[C@H](NC(=O)c1nn(Cc2ccc(F)cc2)c2ccccc12)C(=O)NC1CCOC1 (stereo partly drawn) [Example 281] | – | – | 37.4 | 4.83
